Test results as given in US20100160454A1, “ANTIMICROBIAL AGENTS, COMPOSITIONS AND PRODUCTS CONTAINING THE SAME, AND METHODS OF USING THE COMPOSITIONS AND PRODUCTS” (Eastman Chemical Company, priority 2008, published 2010).

Legend:
Assay in all cases: Microbiological challenge testing in BPW broth, graded subculture counts
Format in all cases: cell-based
[1] = system: Streptococcus mutans ATCC 35668
Procedure, shortened: (§1)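 TSB + 1% dextrose cultures, 35 ± 2 °C, ≥96 h. Inoculum calibrated by NTU vs plate counts; challenge at 10^5–10^6 CFU/mL final in BPW/1% dextrose with test material. Triplicates (butoxyethanol in duplicate). Spread plates on PCA, ≥48 h, CFU/mL = count × dilution.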

[2] = system: Pseudomonas aeruginosa Wild type; conditions: P. aeruginosa
Procedure, shortened: as §1

[3] = system: Bacillus subtilis Wild type
Procedure, shortened: as §1

[4] = system: Staphylococcus aureus ATCC 25923; conditions: S. aureus
Procedure, shortened: as §1

Aeromonas sp. Wild type = system: Aeromonas sp. Wild type
Procedure, shortened: as §1

[5] = system: Burkholderia cepacia Wild type; conditions: B. cepacia
Procedure, shortened: as §1

Question: Which “S. mutans growth grade, 3 day” value ([1]; 0.5% weight/volume) does the source give for O=C([O-])CN(CCN(CC(=O)[O-])CC(=O)O)CC(=O)O.[Na+].[Na+] [EDTA, Na2EDTA] here?
Answer: The value was 4 (1000 to 10,000 colonies countable (thus 10,000 CFU/mL to 100,000 CFU/mL)).

Question: And the “S. mutans growth grade, 13 day” value ([1]; 0.5% weight/volume)?
Answer: Its value is 4 (1000 to 10,000 colonies countable (thus 10,000 CFU/mL to 100,000 CFU/mL)).

Question: What about the “S. mutans growth grade, 30 day” value ([1]; 0.5% weight/volume) of the same compound?
Answer: The value was 4 (1000 to 10,000 colonies countable (thus 10,000 CFU/mL to 100,000 CFU/mL)).

Question: And the “S. mutans growth grade, 3 day” value ([1]; 1.25% weight/volume)?
Answer: The value was 2 (52 to 100 colonies counted (thus 520 to 1000 CFU/mL)).

Question: What about the “S. mutans growth grade, 13 day” value ([1]; 1.25% weight/volume) of the same compound?
Answer: Its value is 2 (52 to 100 colonies counted (thus 520 to 1000 CFU/mL)).

Question: And the “S. mutans growth grade, 30 day” value ([1]; 1.25% weight/volume)?
Answer: Its value is 2 (52 to 100 colonies counted (thus 520 to 1000 CFU/mL)).

Question: And the “S. mutans growth grade, 3 day” value ([1]; 2.5% weight/volume)?
Answer: The value was 0.

Question: What about the “S. mutans growth grade, 13 day” value ([1]; 2.5% weight/volume) of the same compound?
Answer: The value was 0.

Question: And the “S. mutans growth grade, 30 day” value ([1]; 2.5% weight/volume)?
Answer: The value was 0.

Question: And the “S. mutans growth grade, 3 day” value ([1]; 5.0% weight/volume)?
Answer: Its value is 0.

Question: And the “S. mutans growth grade, 13 day” value ([1]; 5.0% weight/volume)?
Answer: Its value is 0.

Question: What about the “S. mutans growth grade, 30 day” value ([1]; 5.0% weight/volume) of the same compound?
Answer: Its value is 0.

Question: What about the Grade ([2]; 0.5% (wt/vol), 3 day) of the same compound?
Answer: The Grade was 4 (1000 to 10,000 colonies countable (thus 10,000 CFU/mL to 100,000 CFU/mL)).

Question: What about the Grade ([2]; 0.5% (wt/vol), 13 day) of the same compound?
Answer: The Grade was 4 (1000 to 10,000 colonies countable (thus 10,000 CFU/mL to 100,000 CFU/mL)).

Question: And the Grade ([2]; 0.5% (wt/vol), 30 day)?
Answer: The Grade was 4 (1000 to 10,000 colonies countable (thus 10,000 CFU/mL to 100,000 CFU/mL)).

Question: And the Grade ([2]; 1.25% (wt/vol), 3 day)?
Answer: The Grade was 4 (1000 to 10,000 colonies countable (thus 10,000 CFU/mL to 100,000 CFU/mL)).

Question: What about the Grade ([2]; 1.25% (wt/vol), 13 day) of the same compound?
Answer: Its Grade is 4 (1000 to 10,000 colonies countable (thus 10,000 CFU/mL to 100,000 CFU/mL)).

Question: What about the Grade ([2]; 1.25% (wt/vol), 30 day) of the same compound?
Answer: The Grade was 4 (1000 to 10,000 colonies countable (thus 10,000 CFU/mL to 100,000 CFU/mL)).

Question: And the Grade ([2]; 2.5% (wt/vol), 3 day)?
Answer: Its Grade is 4 (1000 to 10,000 colonies countable (thus 10,000 CFU/mL to 100,000 CFU/mL)).

Question: And the Grade ([2]; 2.5% (wt/vol), 13 day)?
Answer: The Grade was 3 (100 to 1000 colonies (thus 1000 to 10,000 CFU/mL)).

Question: What about the Grade ([2]; 2.5% (wt/vol), 30 day) of the same compound?
Answer: The Grade was 4 (1000 to 10,000 colonies countable (thus 10,000 CFU/mL to 100,000 CFU/mL)).

Question: And the Grade ([2]; 5.0% (wt/vol), 3 day)?
Answer: Its Grade is 0.

Question: What about the Grade ([2]; 5.0% (wt/vol), 13 day) of the same compound?
Answer: Its Grade is 0.

Question: What about the Grade ([2]; 5.0% (wt/vol), 30 day) of the same compound?
Answer: The Grade was 0.

Question: And the “B. subtillis growth grade, 3 day” value ([3]; 0.5% weight/volume)?
Answer: The value was 4 (1000 to 10,000 colonies countable (thus 10,000 CFU/mL to 100,000 CFU/mL)).

Question: What about the “B. subtillis growth grade, 14 day” value ([3]; 0.5% weight/volume) of the same compound?
Answer: Its value is 4 (1000 to 10,000 colonies countable (thus 10,000 CFU/mL to 100,000 CFU/mL)).

Question: What about the “B. subtillis growth grade, 30 day” value ([3]; 0.5% weight/volume) of the same compound?
Answer: Its value is 4 (1000 to 10,000 colonies countable (thus 10,000 CFU/mL to 100,000 CFU/mL)).

Question: What about the “B. subtillis growth grade, 3 day” value ([3]; 1.25% weight/volume) of the same compound?
Answer: The value was 2 (52 to 100 colonies counted (thus 520 to 1000 CFU/mL)).

Question: And the “B. subtillis growth grade, 14 day” value ([3]; 1.25% weight/volume)?
Answer: The value was 2 (52 to 100 colonies counted (thus 520 to 1000 CFU/mL)).

Question: And the “B. subtillis growth grade, 30 day” value ([3]; 1.25% weight/volume)?
Answer: The value was 2 (52 to 100 colonies counted (thus 520 to 1000 CFU/mL)).

Question: And the “B. subtillis growth grade, 3 day” value ([3]; 2.5% weight/volume)?
Answer: Its value is 0.

Question: What about the “B. subtillis growth grade, 14 day” value ([3]; 2.5% weight/volume) of the same compound?
Answer: Its value is 0.

Question: And the “B. subtillis growth grade, 30 day” value ([3]; 2.5% weight/volume)?
Answer: The value was 0.

Question: What about the “B. subtillis growth grade, 3 day” value ([3]; 5.0% weight/volume) of the same compound?
Answer: Its value is 0.

Question: And the “B. subtillis growth grade, 14 day” value ([3]; 5.0% weight/volume)?
Answer: The value was 0.

Question: What about the “B. subtillis growth grade, 30 day” value ([3]; 5.0% weight/volume) of the same compound?
Answer: Its value is 0.

Question: What about the Grade ([4]; 0.5% (wt/vol), 3 day) of the same compound?
Answer: Its Grade is 4 (1000 to 10,000 colonies countable (thus 10,000 CFU/mL to 100,000 CFU/mL)).

Question: And the Grade ([4]; 0.5% (wt/vol), 14 day)?
Answer: The Grade was 4 (1000 to 10,000 colonies countable (thus 10,000 CFU/mL to 100,000 CFU/mL)).

Question: What about the Grade ([4]; 0.5% (wt/vol), 30 day) of the same compound?
Answer: Its Grade is 4 (1000 to 10,000 colonies countable (thus 10,000 CFU/mL to 100,000 CFU/mL)).

Question: What about the Grade ([4]; 1.25% (wt/vol), 3 day) of the same compound?
Answer: Its Grade is 2.7.

Question: What about the Grade ([4]; 1.25% (wt/vol), 14 day) of the same compound?
Answer: Its Grade is 2 (52 to 100 colonies counted (thus 520 to 1000 CFU/mL)).

Question: And the Grade ([4]; 1.25% (wt/vol), 30 day)?
Answer: The Grade was 2 (52 to 100 colonies counted (thus 520 to 1000 CFU/mL)).

Question: What about the Grade ([4]; 2.5% (wt/vol), 3 day) of the same compound?
Answer: The Grade was 1 (0 to 51 colonies counted (thus 10 to 510 CFU/mL based on 0.1-mL sample)).

Question: And the Grade ([4]; 2.5% (wt/vol), 14 day)?
Answer: Its Grade is 0.3.

Question: And the Grade ([4]; 2.5% (wt/vol), 30 day)?
Answer: The Grade was 0.3.

Question: And the Grade ([4]; 5.0% (wt/vol), 3 day)?
Answer: The Grade was 0.

Question: What about the Grade ([4]; 5.0% (wt/vol), 14 day) of the same compound?
Answer: The Grade was 0.

Question: What about the Grade ([4]; 5.0% (wt/vol), 30 day) of the same compound?
Answer: Its Grade is 0.

Question: And the “Aeromonas sp growth grade, 3 day” value (Aeromonas sp. Wild type; 0.5% weight/volume)?
Answer: Its value is 5 (More than 10,000 colonies estimated (thus more than 100,000 CFU/mL)).

Question: What about the “Aeromonas sp growth grade, 14 day” value (Aeromonas sp. Wild type; 0.5% weight/volume) of the same compound?
Answer: Its value is 4 (1000 to 10,000 colonies countable (thus 10,000 CFU/mL to 100,000 CFU/mL)).

Question: And the “Aeromonas sp growth grade, 30 day” value (Aeromonas sp. Wild type; 0.5% weight/volume)?
Answer: Its value is 4 (1000 to 10,000 colonies countable (thus 10,000 CFU/mL to 100,000 CFU/mL)).

Question: And the “Aeromonas sp growth grade, 3 day” value (Aeromonas sp. Wild type; 1.25% weight/volume)?
Answer: Its value is 4 (1000 to 10,000 colonies countable (thus 10,000 CFU/mL to 100,000 CFU/mL)).

Question: What about the “Aeromonas sp growth grade, 14 day” value (Aeromonas sp. Wild type; 1.25% weight/volume) of the same compound?
Answer: The value was 4 (1000 to 10,000 colonies countable (thus 10,000 CFU/mL to 100,000 CFU/mL)).

Question: What about the “Aeromonas sp growth grade, 30 day” value (Aeromonas sp. Wild type; 1.25% weight/volume) of the same compound?
Answer: The value was 4 (1000 to 10,000 colonies countable (thus 10,000 CFU/mL to 100,000 CFU/mL)).

Question: And the “Aeromonas sp growth grade, 3 day” value (Aeromonas sp. Wild type; 2.5% weight/volume)?
Answer: Its value is 3 (100 to 1000 colonies (thus 1000 to 10,000 CFU/mL)).

Question: What about the “Aeromonas sp growth grade, 14 day” value (Aeromonas sp. Wild type; 2.5% weight/volume) of the same compound?
Answer: Its value is 2 (52 to 100 colonies counted (thus 520 to 1000 CFU/mL)).

Question: And the “Aeromonas sp growth grade, 30 day” value (Aeromonas sp. Wild type; 2.5% weight/volume)?
Answer: Its value is 1 (0 to 51 colonies counted (thus 10 to 510 CFU/mL based on 0.1-mL sample)).

Question: What about the “Aeromonas sp growth grade, 3 day” value (Aeromonas sp. Wild type; 5.0% weight/volume) of the same compound?
Answer: The value was 1 (0 to 51 colonies counted (thus 10 to 510 CFU/mL based on 0.1-mL sample)).

Question: What about the “Aeromonas sp growth grade, 14 day” value (Aeromonas sp. Wild type; 5.0% weight/volume) of the same compound?
Answer: The value was 0.

Question: And the “Aeromonas sp growth grade, 30 day” value (Aeromonas sp. Wild type; 5.0% weight/volume)?
Answer: The value was 0.

Question: And the Grade ([5]; 0.5% (wt/vol), 3 day)?
Answer: Its Grade is 4 (1000 to 10,000 colonies countable (thus 10,000 CFU/mL to 100,000 CFU/mL)).

Question: What about the Grade ([5]; 0.5% (wt/vol), 14 day) of the same compound?
Answer: Its Grade is 4 (1000 to 10,000 colonies countable (thus 10,000 CFU/mL to 100,000 CFU/mL)).

Question: And the Grade ([5]; 0.5% (wt/vol), 30 day)?
Answer: Its Grade is 4 (1000 to 10,000 colonies countable (thus 10,000 CFU/mL to 100,000 CFU/mL)).

Question: And the Grade ([5]; 1.25% (wt/vol), 3 day)?
Answer: The Grade was 3 (100 to 1000 colonies (thus 1000 to 10,000 CFU/mL)).

Question: What about the Grade ([5]; 1.25% (wt/vol), 14 day) of the same compound?
Answer: Its Grade is 2 (52 to 100 colonies counted (thus 520 to 1000 CFU/mL)).

Question: And the Grade ([5]; 1.25% (wt/vol), 30 day)?
Answer: The Grade was 2 (52 to 100 colonies counted (thus 520 to 1000 CFU/mL)).

Question: And the Grade ([5]; 2.5% (wt/vol), 3 day)?
Answer: Its Grade is 1 (0 to 51 colonies counted (thus 10 to 510 CFU/mL based on 0.1-mL sample)).

Question: And the Grade ([5]; 2.5% (wt/vol), 14 day)?
Answer: Its Grade is 0.

Question: What about the Grade ([5]; 2.5% (wt/vol), 30 day) of the same compound?
Answer: The Grade was 0.

Question: What about the Grade ([5]; 5.0% (wt/vol), 3 day) of the same compound?
Answer: Its Grade is 0.

Question: And the Grade ([5]; 5.0% (wt/vol), 14 day)?
Answer: Its Grade is 0.

Question: What about the Grade ([5]; 5.0% (wt/vol), 30 day) of the same compound?
Answer: The Grade was 0.
